Data from US20250064867A1, “METHOD FOR PREVENTING OR TREATING MUSCLE DISEASE” (KOREA RESEARCH INSTITUTE OF BIOSCIENCE AND BIOTECHNOLOGY, priority 2018, published 2025).

Test system: C2C12 myoblasts
Test: WST-1 cytotoxicity assay on C2C12
Assay type: cell-based, mouse
Conditions: 24 hours
Protocol: First, mouse skeletal muscle C2C12 cell line (CRL-1772, ATCC, Manassas, VA, USA) was purchased and used. To assess the cytotoxicity of dexamethasone and HB05P on C2C12, a WST-1 assay (Cell Proliferation Reagent WST-1, 5015944001, Roche, Basel, Switzerland) was performed. Myoblasts (C2C12) were dispensed at a density of 2.0×10^4 cells/well into 96-well plates (Corning® 96-well Clear Polystyrene Microplates, 3598, Corning, Glendale, AZ, USA) and cultured at 37° C. in 5% CO2 conditions for 24 hours. The cultured cells were then treated with varying concentrations of dexamethasone (0, 250, 500, 750, 1000 μM) and HB05P (0, 1.0×10^3, 1.0×10^4, 1.0×10^5, 1.0×10^6, 1.0×10^7 cells/well). After 24 hours of incubation, cell viability was measured using a VersaMax Microplate Reader (Molecular devices, San Jose, CA, USA).

## C[C@@H]1C[C@H]2[C@@H]3CCC4=CC(=O)C=C[C@]4(C)[C@@]3(F)[C@@H](O)C[C@]2(C)[C@@]1(O)C(=O)CO [dexamethasone]
0, 250, 500, 750, 1000 μM
  cell viability, trend over concentration: concentration-dependent decrease
250 μM, untreated = 100%
  cell viability: 66.6%
